Experimental data as given in article PMC7016291 (Acta Pharmaceutica Sinica. B, 2019).
Values joined by “and” are separate entries in the source; they are usually repeats but may differ in a detail not shown here. Equal entries are not always repeated.

Assays:
[1] = Cytotoxicity in uninfected MT-4 cells; assay type: cell-based; settings: human, uninfected MT-4 cells
[2] = system: HIV-2 (ROD); assay: Anti-HIV activity in MT-4 cells; assay type: cell-based; settings: Human immunodeficiency virus 2, MT4, read-out: EC50 ROD
[3] = molecular target: HIV-1 RT RNase H (Human immunodeficiency virus type 1 group M subtype B, UniProt P03366); assay: HIV-1 RT RNase H inhibition; assay type: biochemical
[4] = molecular target: WT HIV-1 RT (Human immunodeficiency virus type 1 group M subtype B, UniProt P03366); assay: HIV-1 RT inhibition assay; assay type: biochemical
[5] = Kinetic aqueous solubility; settings: kinetic from dmso stock
[6] = system: HIV-1 Y188L; assay: Anti-HIV-1 activity against mutant strain Y188L in MT-4 cells; assay type: cell-based; settings: Human immunodeficiency virus 1, MT4, read-out: EC50 Y188L
[7] = system: HIV-1 RES056 (K103N/Y181C); assay: Anti-HIV-1 activity against double mutant RES056 in MT-4 cells; assay type: cell-based; settings: Human immunodeficiency virus 1, MT4, read-out: EC50 RES056
[8] = system: HIV-1 L100I; assay: Anti-HIV-1 activity against mutant strain L100I in MT-4 cells; assay type: cell-based; settings: Human immunodeficiency virus 1, MT4, read-out: EC50 L100I
[9] = system: HIV-1 F227L + V106A; assay: Anti-HIV-1 activity against double mutant F227L + V106A in MT-4 cells; assay type: cell-based; settings: Human immunodeficiency virus 1, MT4, read-out: EC50 F227L + V106A
[10] = system: HIV-1 E138K; assay: Anti-HIV-1 activity against mutant strain E138K in MT-4 cells; assay type: cell-based; settings: Human immunodeficiency virus 1, MT4, read-out: EC50 E138K
[11] = system: HIV-1 Y181C; assay: Anti-HIV-1 activity against mutant strain Y181C in MT-4 cells; assay type: cell-based; settings: Human immunodeficiency virus 1, MT4, read-out: EC50 Y181C
[12] = system: HIV-1 K103N; assay: Anti-HIV-1 activity against mutant strain K103N in MT-4 cells; assay type: cell-based; settings: Human immunodeficiency virus 1, MT4, read-out: EC50 K103N

| Structure (SMILES) | CC50 at 4 days [1] | EC50 [2] [µM] | IC50 [3] [µM] | IC50 [4] [µM] | further results |
| --- | --- | --- | --- | --- | --- |
| Cc1cc(-c2ccc(C#N)cc2)cc(C)c1Oc1nc(Nc2ccc(C#N)cc2)nc(NC2CCOCC2)n1 [Compound 5b, 4ʹ-((4-((4-Cyanophenyl)amino)-6-((tetrahydro-2H-pyran-4-yl)amino)-1,3,5-triazin-2-yl)oxy)-3ʹ,5ʹ-dimethyl-[1,1ʹ-biphenyl]-4-carbonitrile] | > 125 µM | 2.03 ± 0.94 | > 1160 | 0.263 |  |
| Cc1cc(-c2ccc(C#N)cc2)cc(C)c1Oc1nc(NCC2CCOC2)nc(Nc2ccc(C#N)cc2)n1 (centres unmarked) [Compound 5c, 4ʹ-((4-((4-Cyanophenyl)amino)-6-(((tetrahydrofuran-3-yl)methyl)amino)-1,3,5-triazin-2-yl)oxy)-3ʹ,5ʹ-dimethyl-[1,1ʹ-biphenyl]-4-carbonitrile] | > 125 µM | 1.01 ± 0.21 | > 1160 | 0.216 |  |
| COC(=O)[C@@H]1CCCN1c1nc(Nc2ccc(C#N)cc2)nc(Oc2c(C)cc(-c3ccc(C#N)cc3)cc2C)n1 [Compound 5d, Methyl (4-((4ʹ-cyano-3,5-dimethyl-[1,1ʹ-biphenyl]-4-yl)oxy)-6-((4-cyanophenyl)-amino)-1,3,5-triazin-2-yl)-L-prolinate] | 2.23 ± 1.09 µM | > 2.23 | > 1100 | 0.273 |  |
| Cc1cc(-c2ccc(C#N)cc2)cc(C)c1Oc1nc(Nc2ccc(C#N)cc2)nc(N2CCOCC2)n1 [Compound 5e, 4ʹ-((4-((4-Cyanophenyl)amino)-6-morpholino-1,3,5-triazin-2-yl)oxy)-3ʹ,5ʹ-dimeth-yl-[1,1ʹ-biphenyl]-4-carbonitrile] | > 125 µM | 3.61 ± 0.55 | 659 | 0.195 | activity against RNase H [3]: slight activity |
| Cc1cc(-c2ccc(C#N)cc2)cc(C)c1Oc1nc(Nc2ccc(C#N)cc2)nc(N2CCNCC2)n1 [Compound 5f, 4ʹ-((4-((4-Cyanophenyl)amino)-6-(piperazin-1-yl)-1,3,5-triazin-2-yl)oxy)-3ʹ,5ʹ-dimethyl-[1,1ʹ-biphenyl]-4-carbonitrile] | 9.8 ± 7.31 µM | > 9.8 | > 1190 | 0.482 |  |
| Cc1cc(-c2ccc(C#N)cc2)cc(C)c1Oc1nc(Nc2ccc(C#N)cc2)nc(N2CCCC2CO)n1 (centres unmarked) [Compound 5g, 4ʹ-((4-((4-Cyanophenyl)amino)-6-(2-(hydroxymethyl)pyrrolidin-1-yl)-1,3,5-triazin-2-yl)oxy)-3ʹ,5ʹ-dimethyl-[1,1ʹ-biphenyl]-4-carbonitrile] | > 125 µM | 1.56 ± 0.49 | > 1160 | 0.28 |  |
| Cc1cc(-c2ccc(C#N)cc2)cc(C)c1Oc1nc(Nc2ccc(C#N)cc2)nc(N2CCC(O)C2)n1 (centres unmarked) [Compound 5h, 4ʹ-((4-((4-Cyanophenyl)amino)-6-(3-hydroxypyrrolidin-1-yl)-1,3,5-triazin-2-yl)-oxy)-3ʹ,5ʹ-dimethyl-[1,1ʹ-biphenyl]-4-carbonitrile] | 5.72 ± 0.08 µM | 2.91 ± 0.98 | > 828 | 0.161 | solubility kinetic ([5]; FaSSIF): 14.7 µg/mL and 29.2 µM; solubility kinetic ([5]; aqueous solution at pH 2.0, pH 2, aqueous buffer): 3.45 µg/mL and 6.85 µM; solubility kinetic ([5]; aqueous solution at pH 7.0, pH 7, aqueous buffer): < 0.786 µg/mL and < 1.56 µM; solubility kinetic ([5]; aqueous solution at pH 7.4, pH 7.4, aqueous buffer): < 0.786 µg/mL and < 1.56 µM; EC50 [6]: 0.023 ± 0.006 µM; EC50 [7]: 0.19 ± 0.05 µM; EC50 [8]: 0.0082 ± 0.0022 µM; EC50 [9]: 0.93 ± 0.11 µM; EC50 [10]: 0.0065 ± 0.0006 µM; EC50 [11]: 0.0092 ± 0.0008 µM; EC50 [12]: 0.0036 ± 0.0009 µM; activity against RNase H [3]: slight activity |
| Cc1cc(-c2ccc(C#N)cc2)cc(C)c1Oc1nc(Nc2ccc(C#N)cc2)nc(N2CCC(O)CC2)n1 [Compound 5i, 4ʹ-((4-((4-Cyanophenyl)amino)-6-(4-hydroxypiperidin-1-yl)-1,3,5-triazin-2-yl)-oxy)-3ʹ,5ʹ-dimethyl-[1,1ʹ-biphenyl]-4-carbonitrile] | 14.9 ± 7.89 µM | 1.51 ± 0.26 | 500 | 0.282 | activity against RNase H [3]: slight activity |
| Cc1cc(-c2ccc(C#N)cc2)cc(C)c1Oc1nc(NCCN2CCN(C)CC2)nc(Nc2ccc(C#N)cc2)n1 [Compound 5k, 4ʹ-((4-((4-Cyanophenyl)amino)-6-((2-(4-methylpiperazin-1-yl)ethyl)amino)-1,3,5-triazin-2-yl)oxy)-3ʹ,5ʹ-dimethyl-[1,1ʹ-biphenyl]-4-carbonitrile] | 14.1 ± 3.47 µM | > 14.1 | > 1070 | 0.658 |  |
| Cc1cc(-c2ccc(C#N)cc2)cc(C)c1Nc1nc(Nc2ccc(C#N)cc2)nc(NC2CC2)n1 [Compound 6a, 4ʹ-((4-((4-Cyanophenyl)amino)-6-(cyclopropylamino)-1,3,5-triazin-2-yl)amino)-3ʹ,5ʹ-dimethyl-[1,1ʹ-biphenyl]-4-carbonitrile] | > 125 µM | 26.5 | > 1270 | 0.0741 |  |
| Cc1cc(-c2ccc(C#N)cc2)cc(C)c1Nc1nc(Nc2ccc(C#N)cc2)nc(NC2CCOCC2)n1 [Compound 6c, 4ʹ-((4-((4-Cyanophenyl)amino)-6-((tetrahydro-2H-pyran-4-yl)amino)-1,3,5-triazin-2-yl)amino)-3ʹ,5ʹ-dimethyl-[1,1ʹ-biphenyl]-4-carbonitrile] | > 125 µM | 40 | > 1160 | 0.246 |  |
| Cc1cc(-c2ccc(C#N)cc2)cc(C)c1Nc1nc(NCC2CCOCC2)nc(Nc2ccc(C#N)cc2)n1 [Compound 6d, 4ʹ-((4-((4-Cyanophenyl)amino)-6-(((tetrahydro-2H-pyran-4-yl)methyl)amino)-1,3,5-triazin-2-yl)amino)-3ʹ,5ʹ-dimethyl-[1,1ʹ-biphenyl]-4-carbonitrile] | > 125 µM | 13.8 | > 1130 | 0.241 |  |
| COC(=O)[C@@H]1CCCN1c1nc(Nc2ccc(C#N)cc2)nc(Nc2c(C)cc(-c3ccc(C#N)cc3)cc2C)n1 [Compound 6f, Methyl (4-((4ʹ-cyano-3,5-dimethyl-[1,1ʹ-biphenyl]-4-yl)amino)-6-((4-cyanophenyl)amino)-1,3,5-triazin-2-yl)-L-prolinate] | > 125 µM | > 125 | > 1100 | 0.253 |  |
| Cc1cc(-c2ccc(C#N)cc2)cc(C)c1Nc1nc(Nc2ccc(C#N)cc2)nc(N2CCOCC2)n1 [Compound 6g, 4ʹ-((4-((4-Cyanophenyl)amino)-6-morpholino-1,3,5-triazin-2-yl)amino)-3ʹ,5ʹ-dimethyl-[1,1ʹ-biphenyl]-4-carbonitrile] | > 125 µM | 39.9 | > 1190 | 0.137 |  |
| Cc1cc(-c2ccc(C#N)cc2)cc(C)c1Nc1nc(Nc2ccc(C#N)cc2)nc(N2CCNCC2)n1 [Compound 6h, 4ʹ-((4-((4-Cyanophenyl)amino)-6-(piperazin-1-yl)-1,3,5-triazin-2-yl)amino)-3ʹ,5ʹ-dimethyl-[1,1ʹ-biphenyl]-4-carbonitrile] | 9.24 ± 5.5 µM | > 9.24 | > 1200 | 0.341 |  |
| Cc1cc(-c2ccc(C#N)cc2)cc(C)c1Nc1nc(Nc2ccc(C#N)cc2)nc(N2CCCC2CO)n1 (centres unmarked) [Compound 6j, 4ʹ-((4-((4-Cyanophenyl)amino)-6-(2-(hydroxymethyl)pyrrolidin-1-yl)-1,3,5-triazin-2-yl)amino)-3ʹ,5ʹ-dimethyl-[1,1ʹ-biphenyl]-4-carbonitrile] | 62.9 ± 7.99 µM | 15.7 | > 1160 | 0.157 |  |
| Cc1cc(-c2ccc(C#N)cc2)cc(C)c1Nc1nc(Nc2ccc(C#N)cc2)nc(N2CCC(O)CC2)n1 [Compound 6l, 4ʹ-((4-((4-Cyanophenyl)amino)-6-(4-hydroxypiperidin-1-yl)-1,3,5-triazin-2-yl)-amino)-3ʹ,5ʹ-dimethyl-[1,1ʹ-biphenyl]-4-carbonitrile] | 5.71 ± 3.93 µM | > 5.71 | > 1160 | 0.223 |  |
| Cc1cc(-c2ccc(C#N)cc2)cc(C)c1Nc1nc(NCCN2CCOCC2)nc(Nc2ccc(C#N)cc2)n1 [Compound 6m, 4ʹ-((4-((4-Cyanophenyl)amino)-6-((2-morpholinoethyl)amino)-1,3,5-triazin-2-yl)-amino)-3ʹ,5ʹ-dimethyl-[1,1ʹ-biphenyl]-4-carbonitrile] | 13.9 ± 10.7 µM | > 13.9 | > 995 | 0.176 |  |
| Cc1cc(-c2ccc(C#N)cc2)cc(C)c1Nc1nc(NCCN2CCN(C)CC2)nc(Nc2ccc(C#N)cc2)n1 [Compound 6n, 4ʹ-((4-((4-Cyanophenyl)amino)-6-((2-(4-methylpiperazin-1-yl)ethyl)amino)-1,3,5-triazin-2-yl)amino)-3ʹ,5ʹ-dimethyl-[1,1ʹ-biphenyl]-4-carbonitrile] | 2.34 ± 0.64 µM | > 2.34 | > 1070 | 0.156 |  |
| Cc1ccnc2c1NC(=O)c1cccnc1N2C1CC1 [NVP, nevirapine, reference compound] | > 4 mg/L |  |  |  | EC50 [6]: > 4 µM; EC50 [7]: > 4 µM; EC50 [8]: 0.46 ± 0.11 µM; EC50 [9]: > 4 µM; EC50 [10]: 0.057 ± 0.006 µM; EC50 [11]: > 4 µM; EC50 [12]: 3.19 ± 3.9 µM |
